Patent publication US20240408180A1, “IONIC LIQUIDS FOR DRUG DELIVERY” (PRESIDENT AND FELLOWS OF HARVARD COLLEGE, priority 2021, published 2024)
One block for each substance: values may come before it.

Legend:
[1] = biological target: Type I Human Collagen (human) (UniProt P02452); assay: fluorescence polarization of Cy5.5-insulin mixed with Type I human collagen
[2] = biological target: Type I Human Collagen (human) (UniProt P02452); assay: dynamic light scattering after mixing the insulin formulation with collagen
[3] = biological target: Type I Human Collagen (human) (UniProt P02452); assay: dynamic light scattering time course after mixing with collagen
[4] = In vivo PK of insulin in ILs after subcutaneous injection; settings: rats, insulin 1 U/kg, non-fasted
insulin [5] = biological target: T1, insulin (Homo sapiens, UniProt P01308); assay: Circular dichroism of insulin secondary structure in ILs; assay type: physicochemical; settings: one hour at room temperature and at 37 C; insulin ~6 U/mL (0.2 mg/mL); versus saline negative control
T1 construct: in this case insulin around 5.8 kDa; purchased Sigma Aldrich (St. Louis, MO)
Description: Circular dichroism was used to assess insulin secondary structure (FIG. 2). The experiment was performed after incubation at room temperature and at 37° C. (physiological temperature) for one hour. This was done to assess whether the heat change associated with subcutaneous injection may affect the insulin structure. […] “aCG” refers to acetylcholine glycolic acid and “aCH” refers to acetylcholine hexenoic acid. Insulin concentration was ˜6 U/mL (0.2 mg/mL).

antibody [6] = assay: Antibody aggregation by SDS-PAGE; assay type: physicochemical; settings: one hour at room temperature; versus control
Description: (§1) Antibody stability was next tested. Circular dichroism and SDS-PAGE were used to assess antibody stability (FIG. 5). […] Additionally, SDS-PAGE was used to assess whether acetylcholine caused aggregation (of particular importance for large beta-sheet biologics like antibodies). […] Both CD and SDS-PAGE were performed after incubation at room temperature for one hour.

antibody [7] = assay: Antibody stability by circular dichroism; assay type: physicochemical; settings: one hour at room temperature; versus fresh antibody control
Description: as §1

rituximab [8] = assay: SPADE-mAb stability by SDS-PAGE; assay type: physicochemical; settings: for rituximab stability by SDS-PAGE: 37 C for 2 and 24 hours
Description: (§2) Described herein the exploration of whether SPADE can also enhance the absorption of a large protein biologic, namely monoclonal antibody rituximab (SPADE-mAb), that would benefit from greater absorption from subcutaneous administration. Due to the clinical requirement of higher dosing for subcutaneous antibody formulation compared to insulin, we first assessed DES concentration for stable SPADE formulation with rituximab using SDS-PAGE and CD. Formulations were prepared with various DES concentrations and consistent rituximab concentrations and incubated at 37° C. for 2 and 24 hours. After incubation, the samples were dialyzed against sodium phosphate to remove DES, and the resulting samples were diluted to the same concentration via UV-Vis spectrophotometry before SDS-PAGE and CD analyses. […] To further confirm this CD was used to assess the secondary structure of the samples that were incubated for 24 hours.
(§3) Protein Stability Assessment Using Circular Dichroism and SDS-PAGE. Insulin and antibody formulations were incubated at 37° C. for one hour and subsequently dialyzed against 10 mM Sodium Phosphate pH 7.4. In preparation for circular dichroism (CD) and SDS-PAGE, the post-dialysis concentration was measured with UV Spectrophotometry (Thermo Scientific NanoDrop One) and adjusted to 200 μg/mL. CD was performed by loading quartz cuvettes (Starna Cells Spectrosil Quartz 1-Q-1), with 200 μL of the sample, into a CD spectrophotometer (Jasco J-815). Mean ellipticity was measured from 190 to 250 nm.
To assess antibody aggregation, SDS-PAGE was performed using vertical gel electrophoresis (BioRad Mini-PROTEAN Tetra Cell) loaded with precast polyacrylamide gels (BioRad TGX 4-15%) according to the manufacturer protocol. To form SDS complexes, samples were incubated in 1× Lammeli buffer for 10 minutes at 70° C. before loading in the gel. After 30 minutes of electrophoresis, the gel was removed and protein bands stained with Coumassie dye.

rituximab [9] = assay: SPADE-mAb stability by circular dichroism; assay type: physicochemical; settings: 37 C for 24 hours
Description: as §2
as §3, with “CD was performed by loading quartz cuvettes (Starna Cells Spectrosil Quartz 1-Q-1), with 200 μL of the sample, into a CD spectrophotometer (Jasco J-815).” left out

insulin [10] = biological target: T1, insulin; assay: Circular dichroism of insulin-DES formulations; assay type: physicochemical; settings: 37 C for two hours
Description: (§4) The final screening was performed to assess cold-chain stability and confirm monomer conformational stability. […] The stability of hexenoate-based formulations was further confirmed by assessing the protein's secondary structure through circular dichroism (CD). […] CD spectra integrity was also confirmed by measuring the high-tension voltage, which was maintained below 500 V for the relevant insulin CD wavelengths (FIG. 14).
as §3, with “Insulin and antibody formulations were incubated at 37° C. for one hour and subsequently dialyzed against 10 mM Sodium Phosphate pH 7.4.” left out

insulin [11] = biological target: T1, insulin; assay: Cold-chain stability of insulin-DES formulations (transmittance); assay type: physicochemical; settings: 4 C over 28 days
Description: as §4
(§5) The insulin-DES formations were first analyzed for initial transmittance to confirm that there was no insulin aggregation immediately after formulation preparation. Subsequently, formulations that passed initial screening were plated in a black-walled 96 well plate (replicates of three) and subjected to a stressed aging assay in which the plate was incubated at 37° C. with constant shaking. Absorbance readings were taken every 15 minutes for 50 hours to assess the change in transmittance over time. For cold chain stability, formulations were tested in a similar manner, without constant shaking, at 4° C. for 28 days.

insulin [12] = biological target: T1, insulin; assay: Stressed aging test of insulin-DES formulations (transmittance); assay type: physicochemical; settings: 50 hours at 37 C with constant shaking
Description: Successful dissolution of insulin was determined by the turbidity of the formulation, assessed by converting absorbance at 540 nm to transmittance.^16 The percent transmittance threshold for the successful formulation was set at 80% as this was the mean transmittance for the clinical comparator (Humalog). Low transmittance values are indicative of insoluble insulin aggregates. All but two formulations met this criterion (FIG. 13). To further screen the remaining DES formulations, a stressed aging test was performed to determine their stability for 50 hours at 37° C. with constant shaking.
as §5

Type I human collagen = biological target: T2, Type I human collagen (Homo sapiens, UniProt P02452+P08123); assay: Fluorescence polarization of Cy5.5-labeled insulin mixed with collagen; assay type: binding; settings: Cy5.5-labeled insulin in aCH versus saline control
T2 construct: purchased Advanced BioMatrix (Carlsbad, CA)
Description: The ability of SPADE to mitigate the interactions of proteins with ECM was assessed using the lead DES, aCH. A schematic representation of the hypothesized mechanism is depicted in FIG. 8A. SPADE (right) is hypothesized to decrease non-specific binding between administered therapeutic proteins and subcutaneous extracellular proteins such as collagen to allow for faster and greater absorption of protein biologics. To test this hypothesis, fluorescence polarization (FP) was performed and dynamic light scattering (DLS) utilized to determine the degree of collagen-insulin association. […] The average polarization was 1.5 times higher for the control group than the SPADE group. To further confirm the FP results and compare against Humalog, DLS was used to measure the average particle diameter (z-avg) after mixing insulin formulations with collagen, as the z-avg for insulin-bound collagen would increase with fewer unbound insulin molecules remaining and only the collagen or collagen-insulin complex being detected. The initial average z-avg for both the Humalog- and SPADE-insulin-collagen mixtures were approximately 100 nm. […]
Physical stability of the formulations in the presence of collagen was further assessed using fluorescence polarization (FP). […] When insulin is fluorescently labeled and excited with polarized light the perpendicular and parallel polarized light emission can be measured. […]

dendritic cell line = assay: In vitro transfection with mRNA nanoparticles coated with DES; assay type: cell-based; settings: 4 hours incubation, flow cytometry
Description: IL delivery of mRNA in vitro was assessed. The in vitro transfection experiments were performed in a dendritic cell line with mRNA nanoparticles and indicate that acetylcholine hexenoic acid DES can enhance mRNA treatments. The particles were incubated with acetylcholine DES solutions to “coat” the particles. The cells were incubated with the particles for the 4 hours before analyzing with flow cytometry.

[13] = rat, in vivo, 10 mg/kg; cited from earlier work

T1 sequence (P01308 25-54 limits assumed, species assumed): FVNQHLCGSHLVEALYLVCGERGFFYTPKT
T1 sequence (P01308 90-110 limits assumed, species assumed): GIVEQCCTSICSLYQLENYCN
Sequence of Type I Human Collagen (human) (P02452 179-1192 limits assumed, chain 1 of 2): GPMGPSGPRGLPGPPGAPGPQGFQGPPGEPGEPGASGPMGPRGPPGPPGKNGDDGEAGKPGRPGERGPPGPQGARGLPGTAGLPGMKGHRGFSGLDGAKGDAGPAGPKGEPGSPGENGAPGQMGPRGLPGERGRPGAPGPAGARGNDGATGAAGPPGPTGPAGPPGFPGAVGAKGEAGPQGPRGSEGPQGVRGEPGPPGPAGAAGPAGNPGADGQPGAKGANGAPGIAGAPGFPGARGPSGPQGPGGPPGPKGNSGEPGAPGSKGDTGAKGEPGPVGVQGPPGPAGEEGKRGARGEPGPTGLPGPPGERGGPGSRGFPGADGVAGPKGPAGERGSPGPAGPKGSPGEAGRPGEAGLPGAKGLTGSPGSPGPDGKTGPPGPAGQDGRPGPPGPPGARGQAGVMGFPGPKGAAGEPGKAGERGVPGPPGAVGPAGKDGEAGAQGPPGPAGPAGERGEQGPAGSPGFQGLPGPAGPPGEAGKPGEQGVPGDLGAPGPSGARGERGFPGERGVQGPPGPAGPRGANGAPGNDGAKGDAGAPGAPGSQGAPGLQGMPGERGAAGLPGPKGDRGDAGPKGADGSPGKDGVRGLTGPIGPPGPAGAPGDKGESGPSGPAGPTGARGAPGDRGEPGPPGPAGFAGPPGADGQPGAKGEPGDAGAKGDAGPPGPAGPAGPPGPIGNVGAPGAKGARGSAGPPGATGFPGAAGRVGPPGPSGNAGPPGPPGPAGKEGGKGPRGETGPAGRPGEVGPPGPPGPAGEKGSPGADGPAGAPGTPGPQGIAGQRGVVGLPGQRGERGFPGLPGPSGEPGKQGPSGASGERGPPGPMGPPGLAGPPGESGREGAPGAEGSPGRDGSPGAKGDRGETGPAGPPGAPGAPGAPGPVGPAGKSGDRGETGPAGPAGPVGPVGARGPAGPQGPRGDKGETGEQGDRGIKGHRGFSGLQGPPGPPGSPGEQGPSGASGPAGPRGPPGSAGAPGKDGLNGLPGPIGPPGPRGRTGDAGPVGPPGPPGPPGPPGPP
Sequence of Type I Human Collagen (human) (P08123 91-1104 limits assumed, chain 2 of 2, further chain): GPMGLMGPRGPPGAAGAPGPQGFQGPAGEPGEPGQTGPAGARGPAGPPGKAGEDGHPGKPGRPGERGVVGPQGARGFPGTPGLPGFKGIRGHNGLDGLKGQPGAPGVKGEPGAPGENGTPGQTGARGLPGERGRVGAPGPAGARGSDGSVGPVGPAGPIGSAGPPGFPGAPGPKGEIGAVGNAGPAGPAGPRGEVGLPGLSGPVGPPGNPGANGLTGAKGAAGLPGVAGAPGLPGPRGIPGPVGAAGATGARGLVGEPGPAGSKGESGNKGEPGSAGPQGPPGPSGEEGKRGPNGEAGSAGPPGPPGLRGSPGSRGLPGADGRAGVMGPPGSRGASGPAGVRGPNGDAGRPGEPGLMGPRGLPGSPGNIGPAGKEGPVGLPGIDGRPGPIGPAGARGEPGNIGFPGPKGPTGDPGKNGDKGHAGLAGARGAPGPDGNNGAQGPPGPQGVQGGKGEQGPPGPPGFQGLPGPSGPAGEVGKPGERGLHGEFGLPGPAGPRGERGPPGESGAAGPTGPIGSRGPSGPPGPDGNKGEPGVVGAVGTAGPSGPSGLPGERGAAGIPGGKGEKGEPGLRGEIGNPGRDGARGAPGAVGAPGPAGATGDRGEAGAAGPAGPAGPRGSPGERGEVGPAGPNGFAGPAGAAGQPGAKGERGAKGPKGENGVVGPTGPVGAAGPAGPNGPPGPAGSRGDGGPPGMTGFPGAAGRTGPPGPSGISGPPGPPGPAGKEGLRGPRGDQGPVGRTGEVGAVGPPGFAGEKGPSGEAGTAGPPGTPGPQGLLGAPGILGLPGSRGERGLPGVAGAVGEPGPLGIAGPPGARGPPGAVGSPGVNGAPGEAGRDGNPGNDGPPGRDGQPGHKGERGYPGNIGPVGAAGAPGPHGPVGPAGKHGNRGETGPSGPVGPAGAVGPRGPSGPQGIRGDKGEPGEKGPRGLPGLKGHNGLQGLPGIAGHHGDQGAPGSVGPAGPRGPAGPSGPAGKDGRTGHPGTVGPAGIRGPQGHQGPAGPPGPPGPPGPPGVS
Sequence of Cy 5.5 fluorescently-labeled insulin (ligand) (P01308 25-54): as the sequence (P01308 25-54 limits assumed, species assumed) above
T2 sequence (P02452 162-1218 limits assumed): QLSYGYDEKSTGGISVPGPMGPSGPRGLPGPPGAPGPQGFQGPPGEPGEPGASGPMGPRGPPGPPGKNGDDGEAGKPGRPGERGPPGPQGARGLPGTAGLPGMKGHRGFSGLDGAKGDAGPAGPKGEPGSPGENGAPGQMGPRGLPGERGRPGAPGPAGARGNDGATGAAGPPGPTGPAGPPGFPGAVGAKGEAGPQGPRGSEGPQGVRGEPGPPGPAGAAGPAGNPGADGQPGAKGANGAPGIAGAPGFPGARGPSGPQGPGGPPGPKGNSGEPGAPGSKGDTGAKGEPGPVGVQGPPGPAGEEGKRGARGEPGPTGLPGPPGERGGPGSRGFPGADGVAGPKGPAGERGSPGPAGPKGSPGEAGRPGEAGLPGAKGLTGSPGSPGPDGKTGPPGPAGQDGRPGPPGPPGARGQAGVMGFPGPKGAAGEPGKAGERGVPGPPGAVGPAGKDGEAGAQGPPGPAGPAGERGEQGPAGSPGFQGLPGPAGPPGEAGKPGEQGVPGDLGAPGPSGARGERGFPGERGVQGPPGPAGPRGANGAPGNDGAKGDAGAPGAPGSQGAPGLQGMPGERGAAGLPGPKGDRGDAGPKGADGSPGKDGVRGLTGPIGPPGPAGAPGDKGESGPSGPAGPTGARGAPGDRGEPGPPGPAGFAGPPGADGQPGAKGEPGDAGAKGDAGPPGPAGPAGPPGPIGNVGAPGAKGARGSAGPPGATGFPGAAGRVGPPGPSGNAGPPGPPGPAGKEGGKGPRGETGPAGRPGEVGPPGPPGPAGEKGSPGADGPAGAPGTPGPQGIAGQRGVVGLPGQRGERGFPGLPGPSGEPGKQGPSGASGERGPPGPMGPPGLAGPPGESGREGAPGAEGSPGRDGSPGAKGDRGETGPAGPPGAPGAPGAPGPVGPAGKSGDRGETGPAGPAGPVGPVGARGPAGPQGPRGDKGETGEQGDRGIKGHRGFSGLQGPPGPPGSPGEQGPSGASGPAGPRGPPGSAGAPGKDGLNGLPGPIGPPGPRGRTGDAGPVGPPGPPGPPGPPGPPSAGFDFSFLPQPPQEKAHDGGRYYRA
T2 sequence (P08123 80-1119 limits assumed): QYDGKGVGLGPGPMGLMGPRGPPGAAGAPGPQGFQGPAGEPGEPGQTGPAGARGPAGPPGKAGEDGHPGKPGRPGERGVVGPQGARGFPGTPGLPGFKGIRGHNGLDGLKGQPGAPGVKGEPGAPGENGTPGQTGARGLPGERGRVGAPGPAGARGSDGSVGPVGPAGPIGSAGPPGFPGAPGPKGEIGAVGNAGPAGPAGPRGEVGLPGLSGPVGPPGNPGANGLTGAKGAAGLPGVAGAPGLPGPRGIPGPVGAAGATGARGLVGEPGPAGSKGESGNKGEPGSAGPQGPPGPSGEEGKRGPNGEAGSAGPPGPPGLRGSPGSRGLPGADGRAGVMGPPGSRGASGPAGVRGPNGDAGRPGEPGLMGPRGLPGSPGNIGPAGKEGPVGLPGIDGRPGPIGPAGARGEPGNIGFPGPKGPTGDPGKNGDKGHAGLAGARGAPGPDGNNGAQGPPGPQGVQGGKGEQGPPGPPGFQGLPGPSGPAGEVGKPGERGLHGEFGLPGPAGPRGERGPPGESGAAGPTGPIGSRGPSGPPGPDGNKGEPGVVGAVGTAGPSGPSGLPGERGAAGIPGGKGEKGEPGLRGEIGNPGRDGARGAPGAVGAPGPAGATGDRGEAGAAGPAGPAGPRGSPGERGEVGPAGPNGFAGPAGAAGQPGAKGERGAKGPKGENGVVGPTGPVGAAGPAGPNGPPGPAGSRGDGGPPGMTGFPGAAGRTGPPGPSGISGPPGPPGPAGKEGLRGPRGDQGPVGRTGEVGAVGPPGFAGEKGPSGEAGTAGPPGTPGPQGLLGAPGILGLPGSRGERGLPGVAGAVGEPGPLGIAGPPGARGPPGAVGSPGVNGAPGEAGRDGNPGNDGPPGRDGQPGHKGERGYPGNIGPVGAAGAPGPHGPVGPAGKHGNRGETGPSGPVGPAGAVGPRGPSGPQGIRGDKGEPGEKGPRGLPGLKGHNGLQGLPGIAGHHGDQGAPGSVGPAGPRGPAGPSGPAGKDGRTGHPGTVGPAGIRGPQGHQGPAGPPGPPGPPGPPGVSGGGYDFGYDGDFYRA

Substance: acetylcholinium glycolate DES [aCG]
Cmax of serum insulin, greater than the choline variant [4]: 50%
insulin secondary structure (circular dichroism curves) (insulin [5]): match the saline negative control groups

Substance: acetylcholinium priopionate DES [aCP]
outcome of stressed aging test (insulin [12]): viable

Substance: cholinium propionate DES [CP]
outcome of stressed aging test (insulin [12]): viable

Substance: hyaluronidase
increase of rituximab absorption [13]: 91%

Further lines, with some results ahead:

fold average polarization, control (saline) over SPADE (aCH) [1]: 1.5 fold
Substance: Cy 5.5 fluorescently-labeled insulin (ligand)

initial average particle diameter (z-avg) of the mixture with collagen [2]: 100 nm
average particle diameter (z-avg) of the mixture with collagen over 60 min [3]: > 5000 nm
Substance: Humalog (insulin lispro) (ligand)

antibody aggregation (SDS-PAGE) (antibody [6]): looked the same as the control
secondary structure of the antibody (circular dichroism) (antibody [7]): not affected
rituximab stability by SDS-PAGE (rituximab [8]; 10% (v/v) DES): faint band further up the gel
appropriate DES concentration for the SPADE-mAb formulation (from stability studies) (rituximab [8]; SDS-PAGE and CD stability studies): 5 % (v/v)
rituximab stability by SDS-PAGE (rituximab [8]; all DES concentrations apart from 10% (v/v)): stable
rituximab secondary structure by CD versus control (rituximab [9]; 10% (v/v) DES): shift in mean ellipticity
CD spectra of insulin versus control insulin in sodium phosphate buffer (insulin [10]): matched that of the control insulin
cold-chain stability (insulin [11]): stable through Day 28
insulin secondary structure (circular dichroism curves) (insulin [5]): match the saline negative control groups
Substance: acetylcholinium hexenoate DES [aCH]
rituximab secondary structure by CD versus control (rituximab [9]; DES concentrations other than 10% (v/v)): none of the other DES concentrations experienced this shift
outcome of stressed aging test (insulin [12]): viable
non-specific insulin-collagen binding (fluorescence polarization) (Type I human collagen): inhibits non-specific insulin-collagen binding
mean fluorescent intensity (GFP expression) (dendritic cell line): higher
percent of cells expressing GFP (dendritic cell line): increased

CD spectra of insulin versus control insulin in sodium phosphate buffer (insulin [10]): matched that of the control insulin
cold-chain stability (insulin [11]): stable through Day 28
Substance: cholinium hexenoate DES
outcome of stressed aging test (insulin [12]): viable

initial average particle diameter (z-avg) of the mixture with collagen [2]: 100 nm
average particle diameter (z-avg) of the mixture with collagen over 60 min [3]: 100 nm
Substance: regular insulin formulated in aCH (SPADE-insulin) (from UniProt P01308 25-54; P01308 90-110) (ligand)
